Experimental data published in patent US20260285850A1, “SUBSTITUTED OXAZOLIDINONES AND IMIDAZOLINONES AS HERBICIDES” (FMC CORPORATION, priority 2023, published 2026).

Columns and labels:
Assay type in all cases: in vivo
corn (Zea mays) [1] = assay: Test A postemergence application, visual injury rating 0-100; settings: Postemergence
Text: (§1) Seeds of plant species selected from barnyardgrass (Echinochloa crus-galli), blackgrass (Alopecurus myosuroides), corn (Zea mays), foxtail, giant (giant foxtail, Setaria faberi), green foxtail (Setaria viridis), goosegrass (Eleusine indica), kochia (Bassia scoparia), oat, wild (wild oat, Avena fatua), palmer (palmer amaranth, palmer pigweed, Amaranthus palmeri), ragweed (common ragweed, Ambrosia artemisiifolia), ryegrass, Italian (italian ryegrass, Lolium multiflorum), soybean (Glycine max) and wheat (Triticum aestivum) were planted into a blend of loam soil and sand and treated preemergence with a directed soil spray using test chemicals formulated in a non-phytotoxic solvent mixture which included a surfactant.
(§2) At the same time, plants selected from these crops and weed species and also galium (catchweed bedstraw, Galium aparine) and horseweed (Erigeron canadensis) were planted in pots containing the same blend of loam soil and sand and treated with postemergence applications of test chemicals formulated in the same manner. Plants ranged in height from 2 to 10 cm and were in the one- to two-leaf stage for the postemergence treatment. Treated plants and untreated controls were maintained in a greenhouse for 10 days, after which time all treated plants were compared to untreated controls and visually evaluated for injury. Plant response ratings, summarized in Table A, are based on a 0 to 100 scale where 0 is no effect and 100 is complete control. A dash (-) response means no test result.

[2] = tested on: palmer (palmer amaranth, palmer pigweed, Amaranthus palmeri); assay: as above; settings: Postemergence
Text: as §1, §2

[3] = tested on: barnyardgrass (Echinochloa crus-galli); assay: as above; settings: Postemergence
Text: as §1, §2

[4] = tested on: oat, wild (wild oat, Avena fatua); assay: as above; settings: Postemergence
Text: as §1, §2

[5] = tested on: blackgrass (Alopecurus myosuroides); assay: as above; settings: Postemergence
Text: as §1, §2

[6] = tested on: galium (catchweed bedstraw, Galium aparine); assay: as above; settings: Postemergence
Text: as §1, §2

kochia (Bassia scoparia) [7] = assay: as above; settings: Postemergence
Text: as §1, §2

soybean (Glycine max) [8] = assay: as above; settings: Postemergence
Text: as §1, §2

[9] = tested on: horseweed (Erigeron canadensis); assay: as above; settings: Postemergence
Text: as §1, §2

[10] = tested on: ryegrass, Italian (italian ryegrass, Lolium multiflorum); assay: as above; settings: Postemergence
Text: as §1, §2

[11] = tested on: wheat (Triticum aestivum); assay: as above; settings: Postemergence
Text: as §1, §2

[12] = tested on: ragweed (common ragweed, Ambrosia artemisiifolia); assay: as above; settings: Postemergence
Text: as §1, §2

corn (Zea mays) [13] = assay: Test A preemergence soil spray, visual injury rating 0-100; settings: 10 days; for Corn plant response rating (0 to 100 scale): 125 g ai/ha
Text: as §1, §2

[14] = tested on: palmer (palmer amaranth, palmer pigweed, Amaranthus palmeri); assay: as above; settings: 10 days; for Amaranth, Palmer plant response rating (0 to 100 scale): 125 g ai/ha
Text: as §1, §2

[15] = tested on: barnyardgrass (Echinochloa crus-galli); assay: as above; settings: 10 days; for Barnyardgrass plant response rating (0 to 100 scale): 125 g ai/ha
Text: as §1, §2

[16] = tested on: oat, wild (wild oat, Avena fatua); assay: as above; settings: 10 days; for Oat, Wild plant response rating (0 to 100 scale): 125 g ai/ha
Text: as §1, §2

[17] = tested on: blackgrass (Alopecurus myosuroides); assay: as above; settings: 10 days; for Blackgrass plant response rating (0 to 100 scale): 125 g ai/ha
Text: as §1, §2

kochia (Bassia scoparia) [18] = assay: as above; settings: 10 days; for Kochia plant response rating (0 to 100 scale): 125 g ai/ha
Text: as §1, §2

soybean (Glycine max) [19] = assay: as above; settings: 10 days; for Soybean plant response rating (0 to 100 scale): 125 g ai/ha
Text: as §1, §2

[20] = tested on: ryegrass, Italian (italian ryegrass, Lolium multiflorum); assay: as above; settings: 10 days; for Ryegrass, Italian plant response rating (0 to 100 scale): 125 g ai/ha
Text: as §1, §2

[21] = tested on: wheat (Triticum aestivum); assay: as above; settings: 10 days; for Wheat plant response rating (0 to 100 scale): 125 g ai/ha
Text: as §1, §2

[22] = tested on: ragweed (common ragweed, Ambrosia artemisiifolia); assay: as above; settings: 10 days; for Ragweed plant response rating (0 to 100 scale): 125 g ai/ha
Text: as §1, §2

[23] = 31 g ai/ha, greenhouse 10 days, 0 no effect, 100 complete control
[24] = 125 g ai/ha, 10 days, 0 is no effect, 100 is complete control
[25] = 31 g ai/ha, 0 = no effect, 100 = complete control
[26] = 0 = no effect, 100 = complete control

In the case of CC1(C(=O)NC2C=CC(C(=O)NS(=O)(=O)C(C)(C)C)C2)CN(c2cc(F)cc(F)c2)C(=O)O1 (stereo not shown) [Compound 80], the “Corn plant response rating (0 to 100 scale)” value (corn (Zea mays) [1]; [23]) is reported as 30, the “Corn plant response rating (0 to 100 scale)” value (corn (Zea mays) [1]; [24]) is reported as 100 and the “Amaranth, Palmer / Pigweed, Palmer plant response rating (0 to 100 scale)” value (“Amaranth, Palmer / Pigweed” below) [2, 23] is reported as 50. For the same compound, the “Amaranth, Palmer / Pigweed” value [2, 24] was 70, the “Barnyardgrass plant response rating (0 to 100 scale)” value [3, 23] was 80 and the “Barnyardgrass plant response rating (0 to 100 scale)” value [3, 24] was 90. For the same compound, the “Oat, Wild plant response rating (0 to 100 scale)” value (“Oat … (0 to 100 scale)” below) [4, 23] was 90, the “Oat … (0 to 100 scale)” value [4, 24] was 90 and the “Blackgrass plant response rating (0 to 100 scale)” value [5, 23] was 30. For the same compound, the “Blackgrass plant response rating (0 to 100 scale)” value [5, 24] was 70, the “Galium plant response rating (0 to 100 scale)” value (“Galium plant response rating” for short) [6, 23] was 80 and the “Galium plant response rating” value [6, 24] was 80. The “Kochia plant response rating (0 to 100 scale)” value (kochia (Bassia scoparia) [7]; [23]) was 70, the “Kochia plant response rating (0 to 100 scale)” value (kochia (Bassia scoparia) [7]; [24]) was 80 and the “Soybean plant response rating (0 to 100 scale)” value (soybean (Glycine max) [8]; [23]) was 70. The “Soybean plant response rating (0 to 100 scale)” value (soybean (Glycine max) [8]; [24]) was 80, the “Horseweed plant response rating (0 to 100 scale)” value (“Horseweed plant response rating” for short) [9, 23] was 10 and the “Horseweed plant response rating” value [9, 24] was 70. The “Ryegrass, Italian plant response rating (0 to 100 scale)” value (“Ryegrass … (0 to 100 scale)” below) [10, 23] was 70, the “Ryegrass … (0 to 100 scale)” value [10, 24] was 80 and the “Wheat plant response rating (0 to 100 scale)” value [11, 23] was 60. The “Wheat plant response rating (0 to 100 scale)” value [11, 24] was 90, the “Ragweed plant response rating (0 to 100 scale)” value [12, 23] was 0 and the “Ragweed plant response rating (0 to 100 scale)” value [12, 24] was 40. The “Corn plant response rating (0-100)” value (corn (Zea mays) [13]; [25]) was 0, the “Corn plant response rating (0 to 100 scale)” value (corn (Zea mays) [13]; [26]) was 0 and the “Amaranth, Palmer plant response rating (0-100)” value [14, 25] was 0. For the same compound, the “Amaranth, Palmer plant response rating (0 to 100 scale)” value [14, 26] was 50, the “Barnyardgrass plant response rating (0-100)” value [15, 25] was 0 and the “Barnyardgrass plant response rating (0 to 100 scale)” value [15, 26] was 40. The “Oat, Wild plant response rating (0-100)” value [16, 25] was 0, the “Oat … (0 to 100 scale)” value [16, 26] was 30 and the “Blackgrass plant response rating (0-100)” value [17, 25] was 0. The “Blackgrass plant response rating (0 to 100 scale)” value [17, 26] was 30, the “Kochia plant response rating (0-100)” value (kochia (Bassia scoparia) [18]; [25]) was 0 and the “Kochia plant response rating (0 to 100 scale)” value (kochia (Bassia scoparia) [18]; [26]) was 70. The “Soybean plant response rating (0-100)” value (soybean (Glycine max) [19]; [25]) was 0, the “Soybean plant response rating (0 to 100 scale)” value (soybean (Glycine max) [19]; [26]) was 10 and the “Ryegrass, Italian plant response rating (0-100)” value [20, 25] was 0. For the same compound, the “Ryegrass … (0 to 100 scale)” value [20, 26] was 60, the “Wheat plant response rating (0-100)” value [21, 25] was 0 and the “Wheat plant response rating (0 to 100 scale)” value [21, 26] was 50. For the same compound, the “Ragweed plant response rating (0-100)” value [22, 25] was 10 and the “Ragweed plant response rating (0 to 100 scale)” value [22, 26] was 0.
In the case of CCS(=O)(=O)NC(=O)C1C=CC(NC(=O)C2(C)CN(c3cc(F)cc(F)c3)C(=O)O2)C1 (stereo not shown) [Compound 81], the “Corn plant response rating (0 to 100 scale)” value (corn (Zea mays) [1]; [23]) is reported as 60, the “Corn plant response rating (0 to 100 scale)” value (corn (Zea mays) [1]; [24]) is reported as 100 and the “Amaranth, Palmer / Pigweed” value [2, 23] is reported as 70. For the same compound, the “Amaranth, Palmer / Pigweed” value [2, 24] was 70, the “Barnyardgrass plant response rating (0 to 100 scale)” value [3, 23] was 90 and the “Barnyardgrass plant response rating (0 to 100 scale)” value [3, 24] was 90. The “Oat … (0 to 100 scale)” value [4, 23] was 80, the “Oat … (0 to 100 scale)” value [4, 24] was 90 and the “Blackgrass plant response rating (0 to 100 scale)” value [5, 23] was 0. The “Blackgrass plant response rating (0 to 100 scale)” value [5, 24] was 50, the “Galium plant response rating” value [6, 23] was 80 and the “Galium plant response rating” value [6, 24] was 80. The “Kochia plant response rating (0 to 100 scale)” value (kochia (Bassia scoparia) [7]; [23]) was 80, the “Kochia plant response rating (0 to 100 scale)” value (kochia (Bassia scoparia) [7]; [24]) was 90 and the “Soybean plant response rating (0 to 100 scale)” value (soybean (Glycine max) [8]; [23]) was 30. The “Soybean plant response rating (0 to 100 scale)” value (soybean (Glycine max) [8]; [24]) was 50, the “Horseweed plant response rating” value [9, 23] was 30 and the “Horseweed plant response rating” value [9, 24] was 70. For the same compound, the “Ryegrass … (0 to 100 scale)” value [10, 23] was 50, the “Ryegrass … (0 to 100 scale)” value [10, 24] was 70 and the “Wheat plant response rating (0 to 100 scale)” value [11, 23] was 90. The “Wheat plant response rating (0 to 100 scale)” value [11, 24] was 90, the “Ragweed plant response rating (0 to 100 scale)” value [12, 23] was 20 and the “Ragweed plant response rating (0 to 100 scale)” value [12, 24] was 50. For the same compound, the “Corn plant response rating” value (corn (Zea mays) [13]; 31 g ai/ha, 0 to 100 scale) was 0, the “Corn plant response rating (0 to 100 scale)” value (corn (Zea mays) [13]; [26]) was 80 and the “Amaranth, Palmer (Pigweed, Palmer) plant response rating” value ([14]; 31 g ai/ha, 0 to 100 scale) was 50. For the same compound, the “Amaranth, Palmer plant response rating (0 to 100 scale)” value [14, 26] was 90, the “Barnyardgrass plant response rating” value ([15]; 31 g ai/ha, 0 to 100 scale) was 90 and the “Barnyardgrass plant response rating (0 to 100 scale)” value [15, 26] was 90. The “Oat, Wild plant response rating” value ([16]; 31 g ai/ha, 0 to 100 scale) was 40, the “Oat … (0 to 100 scale)” value [16, 26] was 70 and the “Blackgrass plant response rating” value ([17]; 31 g ai/ha, 0 to 100 scale) was 30. The “Blackgrass plant response rating (0 to 100 scale)” value [17, 26] was 70, the “Kochia plant response rating” value (kochia (Bassia scoparia) [18]; 31 g ai/ha, 0 to 100 scale) was 70 and the “Kochia plant response rating (0 to 100 scale)” value (kochia (Bassia scoparia) [18]; [26]) was 90. The “Soybean plant response rating” value (soybean (Glycine max) [19]; 31 g ai/ha, 0 to 100 scale) was 10, the “Soybean plant response rating (0 to 100 scale)” value (soybean (Glycine max) [19]; [26]) was 70 and the “Ryegrass, Italian plant response rating” value ([20]; 31 g ai/ha, 0 to 100 scale) was 60. For the same compound, the “Ryegrass … (0 to 100 scale)” value [20, 26] was 80, the “Wheat plant response rating” value ([21]; 31 g ai/ha, 0 to 100 scale) was 40 and the “Wheat plant response rating (0 to 100 scale)” value [21, 26] was 90. For the same compound, the “Ragweed plant response rating” value ([22]; 31 g ai/ha, 0 to 100 scale) was 20 and the “Ragweed plant response rating (0 to 100 scale)” value [22, 26] was 10.
